Laboratory results reported in patent publication US6133322A, “Quinone derivatives for treating or preventing diseases associated with iron overload” (Institut National de la Sante et de la Recherche Medicale …, priority 1998, dated 2000).

Legend:
[1] = test system: membrane lipids; test: Iron-induced peroxidation of membrane lipids (cis-parinaric acid fluorescent probe) in human heart homogenates; assay type: biochemical; conditions: for iron-induced damages of the membrane components (in words): in vitro system, summary; for peroxidation of membrane lipids (in words): FIG. 1A, iron form added to heart homogenate
Protocol: (§1) Human heart homogenates were used as an in vitro model to mimic the action of iron on mitochondrial ISPs and to test the potentially protective effect of various substances.
(§2) These homogenates were prepared under low iron-chelating conditions using the procedures described in Rustin P. et al., Biochemical and molecular investigations in respiratory chain deficiencies, Clin. Chim. Acta., 228, 35-51 (1994). Briefly, homogenate from frozen human heart was obtained surgically and prepared at ice-melting temperature in a 0.1 M Tris-HCI buffer (pH 7.3) by five strokes of hand-driven ground glass potter using the procedures described in Sanchez-Casis et al., Pathology of the heart in Friedreich's ataxia: review of the literature and report of one case, Can. J. Neurol. Sci., 3, 349-354 (1977). After filtering through a 90 μm nylon net, homogenate was sampled and frozen at -80° C. for enzyme studies.
(§3) The endogenous antioxidant defenses of heart mitochondria were neutralized by simple dilution, and free access of iron to its specific targets was achieved by freeze-thaw disrupting mitochondrial membranes.
Lipoperoxidation, a marker of non-specific peroxidative damages caused to membrane components, was monitored in the presence of either reduced or oxidized iron. Cis-parinaric acid (c-PN) was used as a fluorescent probe for lipoperoxidation (15,16). Measurements were performed in a 37° C. thermostated quartz cell, magnetically stirred, and containing 2 ml 0.1 M Tris-HCI buffer (pH 7.3) using a LS540B Spectrofluorimeter (Perkin-Elmer, England). Excitation: 318 nm; 5 nm band-pass Emission: 410 nm; 5 nm band-pass.
(§4) Lipids peroxidation, complex II activity, and aconitase activity were monitored according to the methods of example 1 above.

[2] = test system: aconitases; test: Aconitase activity (aconitate accumulation at 240 nm in the presence of citrate) in human heart homogenate; assay type: biochemical; conditions: for Iron-induced damages to: Aconitases: 5 nM Fe^2+ + 2 nM EDTA + 6 U of the one enzyme
Protocol: as §1, §2, §3
(§5) The activities of two enzymes specifically targeted in FRDA, namely membrane-bound respiratory chain complex II and soluble (mitochondrial plus cytosolic) aconitases, were monitored under either low or high iron chelating conditions, in the presence of either reduced or oxidized iron. Complex II activity was measured on freeze-thaw heart homogenate as the dichlorophenolindophenol quinone reductase (DCPIP) (14). Aconitase activity in heart homogenate, corresponding to the combined mitochondrial and cytosolic enzyme activities, was measured by following the aconitate accumulation at 240 nm in the presence of citrate (6). All measurements were performed using a DW2000 Aminco Spectrophotometer (SLM, USA) in a 37° C. thermostated quartz cell, magnetically stirred, and containing 2 ml 0.1 M Tris-HCI buffer (pH 7.3).
as §4
Aconitase was assayed after additional 3 min incubation with 250 μM desferrixamine. Trace b: Aconitase activity measured after 6 min incubation in Tris-HCI buffer containing 250 μM desferrioxamine in the absence of Fe^2+.

[3] = test system: complex II; test: Complex II activity (succinate quinone DCPIP reductase) in freeze-thaw human heart homogenate; assay type: biochemical; conditions: for protection of complex II from iron induced damages (in words): succinate alone or 60 μM oxidized idebenone alone, FIG. 2C traces a, b
Protocol: as §1, §2, §3, §5, §4

[4] = test system: FRDA patients; test: Idebenone administration in FRDA patients: cardiac hypertrophy and cerebellar ataxia; assay type: in vivo, human
Protocol: Based on the previous in vitro data and owing to the innocuousness of the drug, five children ranging in age from 71/2 to 14 years and two young adults, all diagnosed with FDRA, were given idebenone orally (5 mg/kg/day).
The results observed after a course of treatment ranging from about 4 to about 9 months of administration at this dosage, are shown in FIG. 3:
A) Follow up of heart ultrasound parameters in patients 1, 6 and 7. LV: left ventricle. Note the decreased septal and left ventricle posterior wall thickness;
B) changes in cerebellar ataxia noted by parents and uninformed teachers. ®: Unchanged; : decrease; 0: No initial involvement.

[5] = 5 nM Fe^2+ + 50 μM quinone, no succinate
[6] = 5 nM Fe^2+ + 10 mM succinate + 50 μM quinone
[7] = quinone reduced in situ by the respiratory chain (succinate)
[8] = idebenone orally 5 mg/kg/day, about 4 to about 9 months
[9] = noted by the parents and uninformed teachers

Molecule: COC1=C(OC)C(=O)C(CC=C(C)CCC=C(C)CCC=C(C)CCC=C(C)C)=C(C)C1=O [CoQ4]
- Iron-induced damages to: Lipids [1, 5]: -74 ± 3%
- Iron-induced damages to: Lipids [1, 6]: -1 ± 1%

Molecule: COC1=C(OC)C(=O)C(CC=C(C)CCC=C(C)CCC=C(C)CCC=C(C)CCC=C(C)CCC=C(C)CCC=C(C)CCC=C(C)CCC=C(C)CCC=C(C)C)=C(C)C1=O [CoQ10]
- Iron-induced damages to: Lipids [1, 5]: -66 ± 2%
- Iron-induced damages to: Lipids [1, 6]: -1 ± 0.4%
- protection against iron-induced lipoperoxidation (in words) ([1]; 8 μM CoQ10 reduced in situ by 3 min incubation with 10 mM succinate, FIG. 2B trace b): full protection
- protection against iron-induced lipoperoxidation (in words) ([1]; 8 μM oxidized CoQ10, absence of succinate, FIG. 2B trace a): did not protect from iron-induced lipoperoxidation
- decrease of aconitase activity ([2]; 3 min with 5 nM Fe^2+ + 8 μM CoQ10 without succinate, then 3 min 250 μM desferrioxamine, FIG. 2D trace c): 77%

Molecule: O=C(O)CN(CCN(CC(=O)O)CC(=O)O)CC(=O)O [EDTA]
- Iron-induced damages to: Lipids ([1]; 5 nM Fe^2+ + 2 nM EDTA): -2 ± 1%
- protection of complex II activity (in words) ([3]; 1 nM EDTA added to the iron-supplemented (5 nM reduced iron) medium, FIG. 1B trace b): fully protected

Molecule: O=C1O[C@H]([C@@H](O)CO)C(O)=C1O [ascorbate]
- iron-induced damages of the membrane components (in words) [1]: enhancing these damages

Molecule: CC(=O)N(O)CCCCCNC(=O)CCC(=O)N(O)CCCCCNC(=O)CCC(=O)N(O)CCCCCN [desferrioxamine]
- Iron-induced damages to: Lipids ([1]; 5 nM Fe^2+ + 120 μM desferrioxamine): 0 ± 1%
- decrease in aconitase activity (in words) ([2]; 200 μM desferrioxamine alone, 6 min pre-incubation, no Fe^2+, FIG. 2D trace b): no decrease in enzyme activity
- loss of aconitase activity ([2]; 250 μM desferrioxamine + 5 nM reduced iron, FIG. 1C trace d): 80%
- inhibition of aconitase activity (in words) ([2]; desferrioxamine in the absence of iron, FIG. 1C trace c): No inhibition of aconitase activity

Molecule: N[C@@H](CCC(=O)N[C@@H](CS)C(=O)NCC(=O)O)C(=O)O [glutathione]
- iron-induced damages of the membrane components (in words) [1]: enhancing these damages

Molecule: COC1=C(OC)C(=O)C(CCCCCCCCCCO)=C(C)C1=O [idebenone, 6-(10-hydroxydecyl)-2,3-dimethoxy-5-methyl-1,4-benzoquinone]
- Iron-induced damages to: Lipids ([1]; 5 nM Fe^2+ + 60 μM idebenone, no succinate): -63 ± 4%
- Iron-induced damages to: Lipids ([1]; 5 nM Fe^2+ + 10 mM succinate + 60 μM idebenone): -1 ± 0.4%
- protection against iron-induced lipoperoxidation (in words) ([1]; 60 μM oxidized idebenone, 3 min, no succinate, FIG. 2A trace a): No protection
- protection against iron-induced lipoperoxidation (in words) ([1]; idebenone reduced in situ by succinate (about 2 μM reduced), FIG. 2A trace b): significant protection
- protection against iron-induced lipoperoxidation (in words) ([1]; longer incubation with succinate (12 μM reduced; 20% of total idebenone), FIG. 2A trace c): enhanced
- protection of membrane lipids against iron injury (in words) [1, 7]: efficiently protected
- protection of membrane-anchored complex II against iron injury (in words) [3, 7]: efficiently protected
- protection of complex II from iron induced damages (in words) [3]: did not protect complex II
- protection of complex II activity (in words) ([3]; succinate and 60 μM idebenone added simultaneously (20% of idebenone reduced), FIG. 2C trace c): full protection
- prevention of the loss of aconitase activity induced by water-soluble chelators in the presence of reduced iron (in words) ([2]; Table 2): neither succinate nor idebenone nor succinate+idebenone prevents the loss of aconitase activity
- myocardial hypertrophy (in words) ([4]; 4 to 9 month regime, five FRDA patients): significant decrease
- deep tendon reflexes (in words) ([4]; after a 9 month course): have not reappeared
- improvement of asynergia/dysmetria (finger-nose test) (patients improved/total) [4, 8]: 3/5
- improvement of delicate movements (handwriting) (patients improved/total) [4, 8]: 4/5
- improvement of gait ataxia (patients improved/total) [4, 8]: 2/5
- improvement of muscle strength (patients improved/total) [4, 8]: 5/5
- general condition (in words) [4, 9]: improvement
- hand clumsiness (in words) [4, 9]: decrease
- decrease of left ventricle mass index ([4]; ultrasound, three patients): -21 to -32%
- reduction of left ventricle wall ([4]; ultrasound, three patients): -8 to -20%
- reduction of septal thickness ([4]; ultrasound, three patients): -31 to -36%

Molecule: O=C(O)CCC(=O)O [succinate]
- Iron-induced damages to: Lipids ([1]; 5 nM Fe^2+ + 10 mM succinate): -58 ± 3%
- protection of membrane lipids against iron-induced peroxidation (in words) ([1]; succinate alone): failed to protect
- protection of complex II from iron induced damages (in words) [3]: did not protect complex II

Molecule: SOD: superoxide dismutase, water-soluble antioxidant enzyme
- iron-induced damages of the membrane components (in words) [1]: unable to prevent
- Iron-induced damages to: Aconitases [2]: -75 ± 1%

Molecule: ferric chloride [Fe^3+]
- peroxidation of membrane lipids (in words) [1]: no damage was observed
- peroxidation of membrane lipids (in words) ([1]; listed as oxidized iron): did not significantly after membrane lipids

Molecule: ferrous chloride [Fe^2+]
- peroxidation of membrane lipids (in words) ([1]; listed as Reduced iron): triggered an immediate peroxidation of the membrane lipid
- peroxidation of membrane lipids (in words) ([1]; listed as reduced iron): rapid lipoperoxidation
- activity of complex II (in words) ([3]; 1 min incubation with 5 nM reduced iron, FIG. 1B trace c): strongly affected
- aconitase activity (in words) ([2]; 10 min incubation with 5 nM reduced iron, FIG. 1C trace b): not affected

B1: catalase: water-soluble antioxidant enzyme (protein, UniProt P04040 2-527, looked up)
Catalase: ADSRDPASDQMQHWKEQRAAQKADVLTTGAGNPVGDKLNVITVGPRGPLLVQDVVFTDEMAHFDRERIPERVVHAKGAGAFGYFEVTHDITKYSKAKVFEHIGKKTPIAVRFSTVAGESGSADTVRDPRGFAVKFYTEDGNWDLVGNNTPIFFIRDPILFPSFIHSQKRNPQTHLKDPDMVWDFWSLRPESLHQVSFLFSDRGIPDGHRHMNGYGSHTFKLVNANGEAVYCKFHYKTDQGIKNLSVEDAARLSQEDPDYGIRDLFNAIATGKYPSWTFYIQVMTFNQAETFPFNPFDLTKVWPHKDYPLIPVGKLVLNRNPVNYFAEVEQIAFDPSNMPPGIEASPDKMLQGRLFAYPDTHRHRLGPNYLHIPVNCPYRARVANYQRDGPMCMQDNQGGAPNYYPNSFGAPEQQPSALEHSIQYSGEVRRFNTANDDNVTQVRAFYVNVLNEEQRKRLCENIAGHLKDAQIFIQKKAVKNFTEVHPDYGSHIQALLDKYNAEKPKNAIHTFVQSGSHLAAREKANL
- iron-induced damages of the membrane components (in words) [1]: unable to prevent
- Iron-induced damages to: Aconitases [2]: -46 ± 2%
